Laboratory results reported in the NIST ThermoML archive (doi:10.1016/j.tca.2012.05.025).
Numbers after ± are expanded uncertainties.

Columns and labels:
[1] = refractive index (Na D-line) (dimensionless); conditions: 101.33 kPa, Liquid, Standard Abbe refractometry
[2] = for surface tension liquid-gas: roughened platinum plate-detachment; for viscosity / mass density: 101 kPa, Liquid; for viscosity: Capillary tube (Ostwald / Ubbelohde) method; for mass density: Vibrating tube method
[3] = xn = mol fraction of the nth substance listed; conditions: x2 = 0; for surface tension liquid-gas: roughened platinum plate-detachment; for viscosity / mass density: 101 kPa, Liquid; for viscosity: Capillary tube (Ostwald / Ubbelohde) method; for mass density: Vibrating tube method
[4] = refractive index (Na D-line) (dimensionless); xn = mol fraction of the nth substance listed; conditions: 101 kPa, Liquid, Standard Abbe refractometry, x2 = 0

SMILES: CN(C)CCCO [3-dimethylamino-1-propanol]
- refractive index ([1]; 293.15 K): 1.4368 ± 0.005
- refractive index ([1]; 298.15 K): 1.4347 ± 0.005
- refractive index ([1]; 303.15 K): 1.4326 ± 0.005
- refractive index ([1]; 308.15 K): 1.4305 ± 0.005
- refractive index ([1]; 313.15 K): 1.4285 ± 0.005
- refractive index ([1]; 318.15 K): 1.4264 ± 0.005
- refractive index ([1]; 323.15 K): 1.4243 ± 0.005
- refractive index ([1]; 328.15 K): 1.4222 ± 0.005
- refractive index ([1]; 333.15 K): 1.42 ± 0.005
- surface tension liquid-gas ([2]; 298.15 K): 29.01 ± 0.18 mN/m
- viscosity ([2]; 298.15 K): 5.839 ± 0.12 mPa·s
- mass density ([2]; 298.15 K): 880.25 ± 0.24 kg/m3
- surface tension liquid-gas ([2]; 303.15 K): 29.28 ± 0.18 mN/m
- viscosity ([2]; 303.15 K): 4.963 ± 0.11 mPa·s
- mass density ([2]; 303.15 K): 876.46 ± 0.24 kg/m3
- surface tension liquid-gas ([2]; 308.15 K): 28.88 ± 0.18 mN/m
- surface tension liquid-gas ([2]; 313.15 K): 28.47 ± 0.17 mN/m
- viscosity ([2]; 313.15 K): 4.266 ± 0.091 mPa·s
- mass density ([2]; 313.15 K): 868.42 ± 0.24 kg/m3
- surface tension liquid-gas ([2]; 318.15 K): 28.13 ± 0.17 mN/m
- surface tension liquid-gas ([2]; 323.15 K): 27.63 ± 0.17 mN/m
- viscosity ([2]; 323.15 K): 3.253 ± 0.069 mPa·s
- mass density ([2]; 323.15 K): 860.29 ± 0.24 kg/m3
- surface tension liquid-gas ([2]; 333.15 K): 26.81 ± 0.17 mN/m
- viscosity ([2]; 333.15 K): 2.768 ± 0.059 mPa·s
- mass density ([2]; 333.15 K): 852.1 ± 0.24 kg/m3
- viscosity ([2]; 343.15 K): 2.03 ± 0.043 mPa·s
- mass density ([2]; 343.15 K): 843.77 ± 0.24 kg/m3

SMILES: O [water]
- refractive index ([1]; 293.15 K): 1.333 ± 0.005
- refractive index ([1]; 298.15 K): 1.3325 ± 0.005
- refractive index ([1]; 303.15 K): 1.3319 ± 0.005
- refractive index ([1]; 308.15 K): 1.3314 ± 0.005
- refractive index ([1]; 313.15 K): 1.3307 ± 0.005
- refractive index ([1]; 318.15 K): 1.3299 ± 0.005
- refractive index ([1]; 323.15 K): 1.3291 ± 0.005
- refractive index ([1]; 328.15 K): 1.3282 ± 0.005
- refractive index ([1]; 333.15 K): 1.3273 ± 0.005
- surface tension liquid-gas ([2]; 298.15 K): 72.09 ± 0.1 mN/m
- viscosity ([2]; 298.15 K): 0.882 ± 0.018 mPa·s
- surface tension liquid-gas ([2]; 303.15 K): 71.27 ± 0.1 mN/m
- viscosity ([2]; 303.15 K): 0.804 ± 0.017 mPa·s
- surface tension liquid-gas ([2]; 308.15 K): 70.44 ± 0.1 mN/m
- surface tension liquid-gas ([2]; 313.15 K): 69.66 ± 0.1 mN/m
- viscosity ([2]; 313.15 K): 0.659 ± 0.014 mPa·s
- surface tension liquid-gas ([2]; 318.15 K): 68.83 ± 0.1 mN/m
- surface tension liquid-gas ([2]; 323.15 K): 67.95 ± 0.1 mN/m
- viscosity ([2]; 323.15 K): 0.551 ± 0.012 mPa·s
- mass density ([2]; 323.15 K): 988.03 ± 0.11 kg/m3
- surface tension liquid-gas ([2]; 333.15 K): 66.23 ± 0.1 mN/m
- viscosity ([2]; 333.15 K): 0.47 ± 0.01 mPa·s
- mass density ([2]; 333.15 K): 983.19 ± 0.11 kg/m3
- viscosity ([2]; 343.15 K): 0.407 ± 0.009 mPa·s
- mass density ([2]; 343.15 K): 977.75 ± 0.11 kg/m3

SMILES: O [water] + CN(C)CCCO
- surface tension liquid-gas ([3]; 298.15 K): 72.09 ± 2 mN/m
- viscosity ([3]; 298.15 K): 0.882 ± 0.018 mPa·s
- surface tension liquid-gas ([3]; 303.15 K): 71.27 ± 2 mN/m
- viscosity ([3]; 303.15 K): 0.804 ± 0.017 mPa·s
- surface tension liquid-gas ([3]; 308.15 K): 70.44 ± 2 mN/m
- surface tension liquid-gas ([3]; 313.15 K): 69.66 ± 2 mN/m
- viscosity ([3]; 313.15 K): 0.659 ± 0.014 mPa·s
- surface tension liquid-gas ([3]; 318.15 K): 68.83 ± 2 mN/m
- surface tension liquid-gas ([3]; 323.15 K): 67.95 ± 2 mN/m
- viscosity ([3]; 323.15 K): 0.551 ± 0.012 mPa·s
- mass density ([3]; 323.15 K): 988.03 ± 0.11 kg/m3
- surface tension liquid-gas ([3]; 333.15 K): 66.23 ± 2 mN/m
- viscosity ([3]; 333.15 K): 0.47 ± 0.01 mPa·s
- mass density ([3]; 333.15 K): 983.19 ± 0.11 kg/m3
- viscosity ([3]; 343.15 K): 0.407 ± 0.009 mPa·s
- mass density ([3]; 343.15 K): 977.75 ± 0.11 kg/m3
- refractive index ([4]; 293.15 K): 1.333 ± 0.005
- refractive index ([4]; 298.15 K): 1.3325 ± 0.005
- refractive index ([4]; 303.15 K): 1.3319 ± 0.005
- refractive index ([4]; 308.15 K): 1.3314 ± 0.005
- refractive index ([4]; 313.15 K): 1.3307 ± 0.005
- refractive index ([4]; 318.15 K): 1.3299 ± 0.005
- refractive index ([4]; 323.15 K): 1.3291 ± 0.005
- refractive index ([4]; 328.15 K): 1.3282 ± 0.005
- refractive index ([4]; 333.15 K): 1.3273 ± 0.005
